Laboratory results: PMC6781309, “Assessing Drug Interaction and Pharmacokinetics of Loxoprofen in Mice Treated with CYP3A Modulators” (Pharmaceutics, 2019)
Values joined by “and” are separate entries in the source; they are usually repeats but may differ in a detail not shown here. Equal values may be shown once. Read-outs that look alike come from different tables or passages of the source.

Tests used:
[1] = Relative concentration of LOX and its metabolites in hepatic portal vein plasma 10 min post-LOX (HRMS); assay type: in vivo, Male ICR mice; settings: hepatic portal vein plasma 10 min after LOX 20 mg/kg oral, n = 3; for Relative concentration in plasma (DEX average % of area, VH corn oil = 100): DEX 40 mg/kg i.p. 3 days; for Relative concentration in plasma (KTC average % of area, VH 10% ethanol = 100): KTC 60 mg/kg i.p. single dose
Description: (§1) The acclimatized animals were divided into eight groups, with each group containing 3 mice: groups I and II, vehicle (corn oil); groups III and IV, DEX-treated; groups V and VI, vehicle (10% Ethanol); and groups VII and VIII, KTC-treated group. […] Then, animals were fasted for 12 hours with free access to water before starting the experiment. After fasting, LOX (20 mg/kg) was administered orally to groups I, II, III, and IV.
Similarly, blood from groups II, IV, VI, and VIII was collected from the hepatic portal vein 10 min post-LOX administration to identify metabolites of LOX and to analyze drug–drug interactions. Plasma from these samples was prepared as explained above. Then, 300 µL of ACN having 0.1% formic acid and 5 µM of the IS were mixed with 100 µL of each plasma sample. […] Supernatants were transferred into tubes and dried using a Labconco Speed Vac (Labconco Corporation, Kansas City, MO, USA). […] Each supernatant was transferred into an LCMS vial, and 5 µL were injected into a high-resolution mass spectrometer (HRMS).
HRMS coupled with ultrahigh performance liquid chromatography (UHPLC) was used to detect hydroxy-LOX and other metabolites of LOX. The UHPLC system, Dionex Ultimate 3000 (Dionex Softron GmbH, Germering, Germany) consisted of an HPG-3200SD Standard binary pump, a WPS 3000 TRS analytical autosampler, and a TCC-3000 SD column compartment. In this experiment, the HRMS was a Q Exactive Focus quadrupole-Orbitrap MS (Thermo Fisher Scientific, Bremen, Germany) equipped with a heated electrospray ionization (HESI-II) ion probe.
LOX was detected as a deprotonated ion [M-H]^− at m/z 245.1175 in negative ion mode. Therefore, negative ion mode was used with the following optimized conditions for LOX: spray voltage of 2.5 kV, capillary temperature of 320 °C, auxiliary gas at 12 aux unit, aux gas heater temperature of 200 °C, sheath gas at 35 aux units, and S-lens RF level of 50. LOX and its metabolites were separated using a 150 mm × 2.1 mm, 2.6-μm reverse-phase liquid chromatography column, Kinetex® C18 column (Phenomenex, CA, USA) at 40 °C. Furthermore, MS-grade solvents were used as the mobile phase in gradient elution mode: 0.1% aqueous formic acid as Solvent A and 0.1% formic acid in ACN as Solvent B. The flow was set to 0.22 mL/min with a gradient condition of Solvent B as 10% between 0 and 0.5 min, 10–50% between 0.5 and 21.5 min, 50–95% between 21.5 and 22.5 min, 95% between 22.5 and 25.5 min, 95–10% between 25.5 and 25.6 min, and 10% between 25.6 and 30 min.

[2] = Plasma pharmacokinetics of LOX, cis-LOX and trans-LOX after oral LOX in mice pretreated with DEX, KTC or vehicle; assay type: in vivo, Male ICR mice; settings: for AUC(0-inf) / AUC(0-t) / Cmax / half-life / Tmax: male, ICR, mouse, plasma, po, 20 mg/kg, mouse plasma, LOX 20 mg/kg oral, mean ± SE, n = 3; for Cmax: read-out: Cmax; for half-life: read-out: T1/2 (elimination half-life); for Tmax: read-out: Tmax (converted)
Description: as §1, with “After fasting, LOX (20 mg/kg) was administered orally to groups I, II, III, and IV.” left out
After the oral administration of LOX, blood from groups I, III, V, and VII was collected from the tail at 0, 5, 10, 15, 30, 60, 120, and 240 min post-administration and placed into sodium heparin-containing tubes. After the last blood collection, the mice were sacrificed by cervical dislocation. Plasma was then prepared by centrifuging the blood at 4000× g for 15 min at 4 °C and stored at −80 °C until analysis. For analysis, each sample was prepared by mixing plasma (10 µL) and 90 µL of ACN containing 0.1% formic acid and 5 µM of tolbutamide as an internal standard (IS). […] Finally, 10 µL of sample supernatant was injected into the LC-MS/MS system. The PK parameters (the maximum plasma concentration [Cmax], time to reach the maximum plasma concentration [Tmax], elimination half-life [T1/2], and area under the plasma concentrations [AUC]) were analyzed by WinNonlin software (Version 2.1, Scientific Consulting, Louisville, KY, USA).
A Shimadzu Prominence UFLC system (Kyoto, Japan) connected to a TSQ vantage triple quadrupole mass spectrometer with a HESI-II spray source incorporated with a DGU-20A5 degasser, an LC-20AD pump, a SIL-20A autosampler, and a CTO-20A column oven was used for the analyses. A shim-pack GIS C18 column (150 × 3.0 mm, […]) was used to separate analytes in the samples. Mobile phases A and B were composed of water with formic acid and ACN with 0.1% formic acid, respectively, and the flow rate was 0.50 mL/min at 40 °C. The gradient conditions were as follows: 20% of B between 0 and 0.25 min, 20–80% of B between 0.25 and 9.75 min, 80–20% of B between 9.75 and 10 min, and 20% of B between 10 and 13 min. The MS was operated under the following conditions: electrospray ionization in negative mode at 3.0 kV, capillary temperature at 350 °C, vaporizer temperature at 300 °C, sheath gas pressure at 35 Arb, and auxiliary gas pressure at 10 Arb. Finally, Xcalibur software (Thermo Fisher Scientific Inc., Waltham, MA, USA) was used for data analysis.

CYP3A = system: CYP3A; parameters: method as in PMID 17965516; settings: human liver microsomes; cited from earlier work
[3] = pretreated DEX 40 mg/kg i.p. 3 days
[4] = pretreated DEX 40 mg/kg i.p. 3 days, read-out: AUC(0–60) (converted)
[5] = pretreated KTC 60 mg/kg i.p. single dose
[6] = pretreated VH (10% ethanol) i.p. single dose
[7] = pretreated VH (10% ethanol) i.p. single dose, read-out: AUC(0–60) (converted)
[8] = pretreated VH (corn oil) i.p. 3 days
[9] = pretreated VH (corn oil) i.p. 3 days, read-out: AUC(0–60) (converted)

Structure (SMILES) | Relative concentration in plasma (KTC average % of area, VH 10% ethanol = 100) [1] | AUC(0-inf) [2, 3] | AUC(0-t) [2, 4] | Cmax [2, 3] | half-life [2, 3] | Tmax [2, 3] | AUC(0-inf) [2, 5] | AUC(0-t) [2, 5] | Cmax [2, 5] | half-life [2, 5] | Tmax [2, 5] | AUC(0-inf) [2, 6] | AUC(0-t) [2, 7] | Cmax [2, 6] | half-life [2, 6] | Tmax [2, 6] | AUC(0-inf) [2, 8] | AUC(0-t) [2, 9] | Cmax [2, 8] | half-life [2, 8] | also measured
CC(C(=O)O)c1ccc(CC2CCCC2=O)cc1 (centres unmarked) [LOX, 2-(4-((2-Oxocyclopentyl)methyl)phenyl)propanoic acid, reference compound] | 178.2% and 178.2 ± 8.3% | 937 ng·h/mL | 892 ng·h/mL | 2500 ± 200 ng/mL | 12 ± 0.7 min | 5 min | 1150 ng·h/mL | 1110 ng·h/mL | 3500 ± 500 ng/mL | 12.2 ± 0.9 min | 5 min | 985 ng·h/mL | 912 ng·h/mL | 2700 ± 300 ng/mL | 14.6 ± 1.1 min | 5 min | 1700 ng·h/mL | 1600 ng·h/mL | 4800 ± 900 ng/mL | 14.9 ± 0.6 min | Relative concentration in plasma (DEX average % of area, VH corn oil = 100) [1]: 74.1% and 74.1 ± 6.3%; Detection in plasma at later time points ([2]; blood collected for up to 240 min after LOX 20 mg/kg oral): not detected after 60 min; Tmax [2, 8]: 5 min; Effect on the metabolism of tacrolimus (CYP3A): slightly inhibited
C[C@H](C(=O)O)c1ccc(C[C@H]2CCC[C@@H]2O)cc1 [trans-LOX, (2S)-2-[4-[[(1R,2S)-2-hydroxycyclopentyl]methyl]phenyl]propanoic acid] | 158.9 ± 11.9% | 1430 ng·h/mL | 1130 ng·h/mL | 2100 ± 200 ng/mL | 26.4 ± 1.6 min | 10.4 min | 1580 ng·h/mL | 1340 ng·h/mL | 3100 ± 300 ng/mL | 19.8 ± 0.7 min | 11.7 min | 1520 ng·h/mL | 1170 ng·h/mL | 2100 ± 200 ng/mL | 26 ± 0.5 min | 11.6 min | 2580 ng·h/mL | 2290 ng·h/mL | 4400 ± 500 ng/mL | 18.2 ± 0.6 min | Relative concentration in plasma (DEX average % of area, VH corn oil = 100) ([1]; listed as M1): 80.07%; Relative concentration in plasma (KTC average % of area, VH 10% ethanol = 100) ([1]; listed as M1): 158.93%; Tmax [2, 8]: 9.1 min
